Among the test systems are A549; EKVX; HCT-15; Hs-578T; MDA-N; Malme-3M; NCI-H23; NCI-H522; OVCAR-3; OVCAR-4; PC-3; SF-295; SN12C; SNB-19; SW-620; TK-10; U-251; UACC-257; UACC-62.
Holding throughout (experiment): NCI-60 cell line screen, 48 h

The text below walks through data of ChEMBL document CHEMBL1201862, “PubChem BioAssay data set” (2004).

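96-well plates; 48 h exposure; 5 concentrations. Endpoints by linear interpolation between flanking doses. Not reached: highest tested concentration assigned. GI50: concentration for 50% inhibition of growth.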 Calls of active or inactive are those of the source. Rule as the data show it: active = GI50 up to about 1.1 µM and inactive = higher. Where only a bound is given, the exact number is not on record here.

With `COc1cc(/C=C2\C[C@H]3[C@@H]4CCC5=CC(=O)CC[C@]5(C)[C@H]4CC[C@]3(C)C2=O)cc(OC)c1OC`, the GI50 in the assay on A549 is 4.15 µM (inactive); in the assay with EKVX it was 15.6 µM (inactive); with HCT-15 it was 4.82 µM; in the assay with Hs-578T it was 17.8 µM (inactive); in the assay with MDA-N it was 4.43 µM (inactive); in the assay on Malme-3M it was 11.4 µM (inactive). Also, the GI50 with NCI-H23 was 6.4 µM (inactive); with NCI-H522, 3.2 µM (inactive); with OVCAR-3 it was 4.49 µM (inactive); in the assay with OVCAR-4 it was 6.12 µM (inactive); in the assay with PC-3, 3.23 µM (inactive); in the assay with SF-295, 5.93 µM (inactive). Moreover, the GI50 in the assay with SN12C is 6.4 µM (inactive); in the assay on SNB-19 it was 30.3 µM (inactive); with SW-620, 8.61 µM (inactive); in the assay on TK-10, 19.8 µM (inactive); in the assay with U-251, 11.7 µM (inactive); in the assay with UACC-257, 6.07 µM (inactive). The GI50 with UACC-62 was 4.35 µM (inactive).
Regarding `O=c1c2cc(S(=O)(=O)Nc3c(Cl)cccc3Cl)ccc2ncn1NS(=O)(=O)c1ccc2ccccc2c1`, the GI50 is > 62.5 µM (inactive) with A549; 12.9 µM (inactive) in the assay with EKVX; 39.6 µM in the assay on HCT-15; 15.8 µM (inactive) with Hs-578T; 41 µM (inactive) with MDA-N; > 62.5 µM (inactive) in the assay with Malme-3M. For the same compound, the GI50 is > 62.5 µM (inactive) in the assay on NCI-H23; 45.4 µM (inactive) with NCI-H522; 7.46 µM (inactive) in the assay on OVCAR-3; > 62.5 µM (inactive) in the assay on OVCAR-4; 12.8 µM (inactive) in the assay with PC-3; 23 µM (inactive) in the assay on SF-295. The GI50 is > 62.5 µM (inactive) in the assay on SN12C; 32.6 µM (inactive) in the assay on SNB-19; > 62.5 µM (inactive) with SW-620; > 62.5 µM (inactive) with TK-10; > 62.5 µM (inactive) with U-251; > 62.5 µM (inactive) with UACC-257. Moreover, in the assay on UACC-62, the GI50 was 33.2 µM (inactive).
On to `CN1CCN(C2=C(Cl)C(=O)c3c(O)ccc(O)c3C2=O)CC1`, for which the GI50 with A549 is 2.16 µM (inactive); in the assay with EKVX, 1.66 µM (inactive); in the assay with HCT-15, 0.176 µM; in the assay with Hs-578T, 2.41 µM (inactive); with MDA-N it was 0.35 µM (active); in the assay on Malme-3M, 0.196 µM (active). Further, the GI50 with NCI-H23 is 0.61 µM (active); with NCI-H522 it was 0.243 µM (active); in the assay with OVCAR-3 it was 0.542 µM (active); in the assay with OVCAR-4, 0.377 µM (active); in the assay with PC-3, 1.73 µM (inactive); with SF-295, 1.78 µM (inactive). The GI50 in the assay with SN12C is 0.826 µM (active); in the assay on SNB-19, 4.99 µM (inactive); in the assay with SW-620, 0.187 µM (active); with TK-10, 0.514 µM (active); in the assay on U-251, 1.72 µM (inactive); in the assay on UACC-257, 0.689 µM (active). In addition, the GI50 in the assay with UACC-62 is 1.32 µM (inactive).
As to `O=C(O)c1ccccc1C(=O)NCC1S(=O)(=O)OCCOS1(=O)=O`, the GI50 was > 100 µM (inactive) with A549; > 100 µM (inactive) with EKVX; more than 100 µM in the assay on HCT-15; > 100 µM (inactive) with Hs-578T; > 100 µM (inactive) in the assay on MDA-N; > 100 µM (inactive) in the assay with Malme-3M. Besides, the GI50 with NCI-H23, with NCI-H522, with OVCAR-3, with OVCAR-4, with PC-3 and in the assay on SF-295 was > 100 µM (inactive) throughout. In addition, the GI50 in the assay with SN12C, with SNB-19, in the assay with SW-620, in the assay on TK-10, in the assay on U-251 and with UACC-257 was > 100 µM (inactive) throughout. Moreover, the GI50 with UACC-62 is > 100 µM (inactive).
For the compound `Oc1cc(Cl)cc2cc(Cl)cnc12`, the GI50 in the assay with A549 is 3.22 µM (inactive); in the assay on EKVX it was 2.85 µM (inactive); in the assay with HCT-15, 0.598 µM; in the assay with Hs-578T, 22.1 µM (inactive); in the assay on MDA-N, 6.34 µM (inactive); in the assay with Malme-3M, 2.25 µM (inactive). Besides, the GI50 was 2.75 µM (inactive) in the assay on NCI-H23; 3.16 µM (inactive) in the assay on NCI-H522; 0.582 µM (active) in the assay with OVCAR-3; 1.55 µM (inactive) with OVCAR-4; 2.94 µM (inactive) in the assay with PC-3; 1.92 µM (inactive) in the assay with SF-295. In addition, the GI50 is 2.3 µM (inactive) in the assay with SN12C; 4 µM (inactive) in the assay with SNB-19; 3.15 µM (inactive) in the assay with SW-620; 27.5 µM (inactive) with TK-10; 2.42 µM (inactive) with U-251; 3.73 µM (inactive) with UACC-257. Also, in the assay with UACC-62, the GI50 was 2.49 µM (inactive).
For the compound `CN1CCN(c2cc3nc4cc(O)cc(O)c4c(O)c3cc2N)CC1`, the GI50 was 61 µM (inactive) with A549; 19.4 µM (inactive) with EKVX; 67 µM with HCT-15; 29.7 µM (inactive) in the assay with Hs-578T; 23.4 µM (inactive) in the assay on MDA-N; 24.6 µM (inactive) with Malme-3M. Besides, the GI50 in the assay on NCI-H23 is 40.6 µM (inactive); in the assay on NCI-H522 it was 19.5 µM (inactive); in the assay on OVCAR-3, 20.7 µM (inactive); in the assay on OVCAR-4, 27.4 µM (inactive); in the assay with PC-3, 18.1 µM (inactive); in the assay on SF-295, 32.7 µM (inactive). The GI50 with SN12C was 1.5 µM (inactive); with SNB-19, 37.1 µM (inactive); with SW-620 it was 21.9 µM (inactive); in the assay on TK-10, 30.7 µM (inactive); with U-251, 17.6 µM (inactive); with UACC-257, 38.8 µM (inactive). In addition, in the assay on UACC-62, the GI50 was 1.57 µM (inactive).
As to `O=C(NCCCCCCCCNC(=O)Nc1cccc2ccccc12)Nc1cccc2ccccc12`, the GI50 is 35.1 µM (inactive) in the assay on A549; 62.1 µM (inactive) in the assay on EKVX; more than 100 µM with HCT-15; 14.2 µM (inactive) in the assay with Hs-578T; 20.3 µM (inactive) in the assay on MDA-N; > 100 µM (inactive) in the assay on Malme-3M. Further, the GI50 was 30.4 µM (inactive) with NCI-H23; 16.1 µM (inactive) in the assay with NCI-H522; 36.5 µM (inactive) in the assay on OVCAR-3; 1.45 µM (inactive) with OVCAR-4; 72.1 µM (inactive) in the assay on PC-3; 28.5 µM (inactive) with SF-295. Further, the GI50 is 18.4 µM (inactive) in the assay with SN12C; 32.2 µM (inactive) with SNB-19; 9.66 µM (inactive) with SW-620; 43.7 µM (inactive) in the assay with TK-10; 2.76 µM (inactive) with U-251; > 100 µM (inactive) in the assay on UACC-257. In the assay on UACC-62, the GI50 is 32.9 µM (inactive).
Consider `Nc1c(S(=O)(=O)O)cc(S(=O)(=O)O)c2ccc(/N=N/c3ccccc3)c(O)c12`, for which the GI50 was > 100 µM (inactive) in the assay on A549; > 100 µM (inactive) in the assay with EKVX; more than 100 µM with HCT-15; > 100 µM (inactive) in the assay with Hs-578T; > 100 µM (inactive) in the assay with MDA-N; > 100 µM (inactive) in the assay on Malme-3M. In addition, the GI50 in the assay with NCI-H23, with NCI-H522, with OVCAR-3, with OVCAR-4, in the assay on PC-3 and in the assay on SF-295 was > 100 µM (inactive) each time. In addition, the GI50 in the assay on SN12C, with SNB-19, in the assay with SW-620, with TK-10, in the assay with U-251 and in the assay with UACC-257 was > 100 µM (inactive) throughout. The GI50 in the assay with UACC-62 was > 100 µM (inactive).
`CN(C)CCCn1c(Cc2ccc(Cl)cc2)nc2cc(C(F)(F)F)ccc21`: the GI50 in the assay with A549 is 18.2 µM (inactive); in the assay on EKVX, 17.4 µM (inactive); with HCT-15, 17.1 µM; with Hs-578T it was 16.6 µM (inactive); in the assay with MDA-N, 12 µM (inactive); in the assay on Malme-3M, 11 µM (inactive). In addition, the GI50 in the assay on NCI-H23 was 15.8 µM (inactive); in the assay with NCI-H522, 14.6 µM (inactive); in the assay with OVCAR-3, 14.5 µM (inactive); in the assay with OVCAR-4, 13.6 µM (inactive); in the assay on PC-3, 15.4 µM (inactive); with SF-295, 17.5 µM (inactive). The GI50 with SN12C is 15.1 µM (inactive); in the assay on SNB-19, 16.5 µM (inactive); with SW-620 it was 23.4 µM (inactive); in the assay with TK-10, 15.3 µM (inactive); in the assay on U-251, 15.3 µM (inactive); in the assay on UACC-257, 15.6 µM (inactive). In addition, in the assay with UACC-62, the GI50 is 17.3 µM (inactive).
Consider `O=C(NC1CCN(Cc2ccccc2)CC1)c1ccc(I)cc1`, for which the GI50 was 76.4 µM (inactive) with A549; > 100 µM (inactive) in the assay with EKVX; 59.6 µM in the assay on HCT-15; 33.2 µM (inactive) with Hs-578T; 54.6 µM (inactive) with MDA-N; 1.98 µM (inactive) in the assay on Malme-3M. Moreover, the GI50 with NCI-H23 is 94.2 µM (inactive); with NCI-H522 it was 63.5 µM (inactive); in the assay with OVCAR-3, > 100 µM (inactive); in the assay on OVCAR-4, > 100 µM (inactive); with PC-3 it was 62.7 µM (inactive); in the assay with SF-295, 29.5 µM (inactive). Also, the GI50 with SN12C was > 100 µM (inactive); in the assay on SNB-19, > 100 µM (inactive); in the assay on SW-620, > 100 µM (inactive); with TK-10 it was > 100 µM (inactive); in the assay with U-251, 81.1 µM (inactive); in the assay with UACC-257, 45.8 µM (inactive). Further, the GI50 in the assay with UACC-62 was 59.4 µM (inactive).
As to `C/C(=N\O)c1cccc[n+]1Cc1ccccc1`, the GI50 in the assay with A549 was > 100 µM (inactive); in the assay with EKVX, > 100 µM (inactive); with HCT-15, more than 100 µM; in the assay on Hs-578T, > 100 µM (inactive); in the assay on MDA-N, > 100 µM (inactive); in the assay on Malme-3M it was > 100 µM (inactive). For the same compound, the GI50 in the assay on NCI-H23, with NCI-H522, in the assay on OVCAR-3, with OVCAR-4, with PC-3 and in the assay with SF-295 was > 100 µM (inactive) throughout. Moreover, the GI50 with SN12C, in the assay with SNB-19, in the assay on SW-620, in the assay with TK-10, in the assay with U-251 and with UACC-257 was > 100 µM (inactive) throughout. In addition, the GI50 in the assay on UACC-62 is > 100 µM (inactive).
